These compounds were tested against T1, human TLR9 (Homo sapiens, UniProt Q9NR96) (assay: HEK293-Blue-hTLR-9 cells assay (SEAP reporter, ODN2006 stimulation)). Details: HEK293-Blue-hTLR9 cells, ODN2006 ligand, 20 hrs incubation.
T1 sequence (Q9NR96 26-1032): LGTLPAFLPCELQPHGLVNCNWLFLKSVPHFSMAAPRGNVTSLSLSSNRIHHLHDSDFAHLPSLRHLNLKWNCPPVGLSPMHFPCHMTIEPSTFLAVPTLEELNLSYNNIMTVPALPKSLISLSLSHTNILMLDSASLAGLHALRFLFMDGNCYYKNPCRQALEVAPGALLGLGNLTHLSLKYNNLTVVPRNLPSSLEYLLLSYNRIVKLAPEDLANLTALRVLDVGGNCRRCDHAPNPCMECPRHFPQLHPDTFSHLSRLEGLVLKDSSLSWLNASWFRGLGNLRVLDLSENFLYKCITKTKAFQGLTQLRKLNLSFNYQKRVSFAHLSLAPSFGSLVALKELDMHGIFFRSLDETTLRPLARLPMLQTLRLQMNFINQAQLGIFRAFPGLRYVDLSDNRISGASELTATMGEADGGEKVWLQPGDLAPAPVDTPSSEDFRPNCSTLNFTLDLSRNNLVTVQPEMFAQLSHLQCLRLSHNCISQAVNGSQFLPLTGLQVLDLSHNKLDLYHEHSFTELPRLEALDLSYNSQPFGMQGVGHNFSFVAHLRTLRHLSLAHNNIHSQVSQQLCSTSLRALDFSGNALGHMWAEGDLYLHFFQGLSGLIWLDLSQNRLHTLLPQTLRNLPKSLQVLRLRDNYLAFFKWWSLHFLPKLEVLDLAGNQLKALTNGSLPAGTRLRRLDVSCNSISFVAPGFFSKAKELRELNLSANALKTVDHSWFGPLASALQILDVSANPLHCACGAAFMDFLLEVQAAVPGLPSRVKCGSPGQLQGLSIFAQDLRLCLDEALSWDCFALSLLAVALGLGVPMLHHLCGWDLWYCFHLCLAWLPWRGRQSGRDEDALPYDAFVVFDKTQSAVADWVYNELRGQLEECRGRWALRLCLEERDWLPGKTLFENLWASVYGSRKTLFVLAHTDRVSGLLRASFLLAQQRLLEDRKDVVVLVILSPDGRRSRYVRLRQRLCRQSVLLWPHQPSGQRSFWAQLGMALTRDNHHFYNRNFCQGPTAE
Format: cell-based
In short: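 HEK293-Blue-hTLR9 cells with NF-κB/AP-1-driven SEAP reporter, stimulated with ODN2006 in presence of serially diluted compounds (1% DMSO) for 20 h at 37 °C. Supernatant SEAP measured with QUANTI-Blue after 2 h at 37 °C, absorbance 620–655 nm.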

Row | Structure (SMILES) | IC50
1 | CN1CCC2(CCN(C[C@H]3CN(c4ccc(C#N)c5nccnc45)C[C@@H]3C(F)(F)F)C2)C1 (stereo partly drawn) [Example 84, 8-[(3S,4R)-3-[(7-methyl-2,7-diazaspiro[4.4]nonan-2-yl)methyl]-4-(trifluoromethyl)pyrrolidin-1-yl]quinoxaline-5-carbonitrile] | 409 nM
2 | CC1(CN)CCN(C[C@H]2CN(c3ccc(C#N)c4nccnc34)C[C@@H]2C(F)(F)F)C1 (stereo partly drawn) [Example 85, 8-[(3S,4R)-3-[[3-(aminomethyl)-3-methyl-pyrrolidin-1-yl]methyl]-4-(trifluoromethyl)pyrrolidin-1-yl]quinoxaline-5-carbonitrile] | 314 nM
3 | CN(C)[C@@H]1CCN(C[C@H]2CN(c3ccc(C#N)c4nccnc34)C[C@@H]2C(F)(F)F)C1 [Example 83, 8-[(3S,4R)-3-[[(3R)-3-(dimethylamino)pyrrolidin-1-yl]methyl]-4-(trifluoromethyl)pyrrolidin-1-yl]quinoxaline-5-carbonitrile] | 2020 nM
4 | N#Cc1ccc(N2CC(CN3CC4CCC(C3)C4N)C3(CC3)C2)c2nccnc12 (centres unmarked) [Example 4, 8-[7-[(8-Amino-3-azabicyclo[3.2.1]octan-3-yl)methyl]-5-azaspiro[2.4]heptan-5-yl]quinoxaline-5-carbonitrile] | 244 nM
5 | N#Cc1ccc(N2CC(CN3CCNCC3)C3(CC3)C2)c2nccnc12 (centres unmarked) [Example 3, 8-[7-(piperazin-1-ylmethyl)-5-azaspiro[2.4]heptan-5-yl]quinoxaline-5-carbonitrile] | 1870 nM

From US20210253575A1, “PYRROLIDINE AMINE COMPOUNDS FOR THE TREATMENT OF AUTOIMMUNE DISEASE” (Hoffmann-La Roche Inc., priority 2018, published 2021)
